According to patent US7799824B2, “Quaternary salt CCR2 antagonists” (OraPharma, Inc., priority 2004, dated 2010):
Values joined by “and” are separate entries in the source; they are usually repeats but may differ in a detail not shown here. Equal entries are not always repeated.

Legend:
[1] = system: Ovalbumin-induced Allergic Rhinitis; assay: Ovalbumin-induced allergic rhinitis in mice, prophylactic effect; assay type: in vivo, BALB/c mice
Protocol: BALB/c mice were sensitized by i.p. injection of OVA emulsified in alum (Day 0, 5, 14, 21). Groups of mice were each challenged by intranasal injection of OVA (Day 22-35, 38). Control group mice received an equal volume of vehicle by intranasal injection. Nasal symptoms (number of sneezes and episodes of nose rubbing by the front paws) were counted during the 5 min period following the last intranasal injection (Day 38). […] The histamine receptor antagonist […]® was used as a positive control.

[2] = system: ovalbumin (OVA)-induced asthma; assay: Ovalbumin (OVA)-induced asthma in mice, mast cell-independent model; assay type: in vivo
Protocol: Mice were sensitized by i.p. injection of OVA emulsified in adjuvant (Day 1 and 14). Groups of mice were each challenged by intranasal injection of OVA (Day 25, 26, 27). Compound 17 was administered by i.p. injection (10 and 30 mg/kg) before each intranasal challenge (Day 25, 26, 27).

[3] = system: Ovalbumin-induced Allergic Rhinitis; assay: Ovalbumin-induced allergic rhinitis in mice, therapeutic effect; assay type: in vivo, BALB/c mice
Protocol: BALB/c mice were sensitized by i.p. injection of OVA emulsified in alum (Day 0, 5, 14, 21). Groups of mice were each challenged by intranasal injection of OVA (Day 22-35, 38).
Control group mice received an equal volume of vehicle by intranasal injection. Nasal symptoms (number of sneezes and episodes of nose rubbing by the front paws) were counted during the 5 min period following the last intranasal injection (Day 38).
The anti-histamine Pyralimine and the mast cell-stabilizing agent Ketotifen were used as positive controls.

[4] = system: ovalbumin (OVA)-induced asthma; assay: Ovalbumin (OVA)-induced asthma in mice, mast cell-dependent model; assay type: in vivo; conditions: 30 mg/kg i.p., Day 42-46
Protocol: Mice were sensitized by i.p. injection with OVA in saline (10 μg) on alternate days (Day 0, 2, 4, 6, 8, 10, 12). Groups of mice were each challenged by intranasal injection of OVA (Day 40, 43, 46). Compound 17 was administered by i.p. injection (30 mg/kg) on consecutive days (Day 42, 43, 44, 45, 46). Compared to vehicle, leukocyte influx was inhibited by 95% and 55% (in two separate assays), LTC4 influx was inhibited by 90% and IL-4 influx was inhibited by 85%.

CCR2 = target: T1, CCR2 (Homo sapiens, UniProt P41597); assay: MCP-1 Receptor Binding Assay in THP-1 Cells; conditions: for IC50: THP-1 cells, 0.5 nM 125I labeled MCP-1, 2 hours at 30° C., read-out: Mean Ligand Binding IC50 (inhibition of MCP-1 binding to CCR2); for inhibition at 25 µM: MCP-1 binding to CCR2, test concentration of 25 μM, unless indicated otherwise, read-out: % Inhibition Ligand Binding
T1 sequence (P41597 1-360 isoform P41597-2): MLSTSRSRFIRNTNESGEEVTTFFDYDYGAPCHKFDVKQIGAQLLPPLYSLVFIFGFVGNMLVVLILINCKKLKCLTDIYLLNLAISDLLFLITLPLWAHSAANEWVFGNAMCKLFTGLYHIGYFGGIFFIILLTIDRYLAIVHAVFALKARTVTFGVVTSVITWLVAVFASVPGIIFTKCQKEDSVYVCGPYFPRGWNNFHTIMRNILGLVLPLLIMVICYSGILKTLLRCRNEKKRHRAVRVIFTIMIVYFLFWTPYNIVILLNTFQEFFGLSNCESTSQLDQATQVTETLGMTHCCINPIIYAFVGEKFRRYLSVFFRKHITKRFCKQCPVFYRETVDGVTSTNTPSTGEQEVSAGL
Method in brief: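 THP-1 cells; bound radioactivity collected on filter plates and counted by scintillation. Buffer-only blanks subtracted, drug-treated values compared with vehicle; nonspecific binding defined with 1 μM unlabeled MCP-1.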

[5] = positive control, dose not given
[6] = intranasal 10 μg/nostril four times per day, Days 29-38
[7] = positive controls, dose not given

CN1CCCC(n2nc(Cc3ccc(Cl)cc3)c3ccccc3c2=O)CC1 (stereo not shown) [Astelin, reference compound]
inhibition of nasal symptoms (rubbing) [1, 5]: 89% | inhibition of nasal symptoms (sneezing) [1, 5]: 51%

C[N+](C)(Cc1ccc(NC(=O)c2ccc(Cl)c(Cl)c2)cc1)C1CCOCC1.[Cl-] [Cpd 17, [4-(3,4-dichloro-benzoylamino)-benzyl]-dimethyl-(tetrahydro-pyran-4-yl)-ammonium chloride]
inhibition of leukocyte influx compared to vehicle ([2]; 10 mg/kg i.p. before each intranasal challenge): 40% | inhibition of leukocyte influx compared to vehicle ([2]; 30 mg/kg i.p. before each intranasal challenge): 70% | inhibition of nasal symptoms (rubbing) [3, 6]: 42% | inhibition of nasal symptoms (sneezing) [3, 6]: 0% | inhibition of nasal symptoms (rubbing) ([1]; intranasal 10 μg/nostril): 57% | inhibition of nasal symptoms (sneezing) ([1]; intranasal 10 μg/nostril): 64% | inhibition of nasal symptoms (rubbing) ([1]; intranasal 30 μg/nostril): 71% | inhibition of nasal symptoms (sneezing) ([1]; intranasal 30 μg/nostril): 82% | inhibition of IL-4 influx compared to vehicle [4]: 85% | inhibition of LTC4 influx compared to vehicle [4]: 90% | inhibition of leukocyte influx compared to vehicle ([4]; two separate assays): 95% and 55%

C[N+](C)(Cc1ccc(NC(=O)c2cc3cc(Cl)ccc3[nH]2)cc1)C[C@@H]1CCCO1 [Cpd 165, (2S)-{4-[(5-chloro-1H-indole-2-carbonyl)-amino]-benzyl}-dimethyl-(tetrahydro-furan-2-ylmethyl)-ammonium iodide]
IC50 (CCR2): 3.3 µM

C[N+](C)(Cc1ccc(NC(=O)c2cc3cc(Cl)ccc3[nH]2)cc1)CC1CC2CCC1C2 (stereo not shown) [Cpd 166, bicyclo[2.2.1]hept-2-ylmethyl-{4-[(5-chloro-1H-indole-2-carbonyl)-amino]-benzyl}-dimethyl-ammonium iodide]
IC50 (CCR2): 0.11 µM

C[N+](C)(Cc1ccc(NC(=O)C2=Cc3cc(Cl)c(Cl)cc3OCC2)cc1)C1CCOCC1 [Cpd 167, {4-[(7,8-dichloro-2,3-dihydro-benzo[b]oxepine-4-carbonyl)-amino]-benzyl}-dimethyl-(tetrahydro-pyran-4-yl)-ammonium iodide]
IC50 (CCR2): 0.24 µM

C[N+](C)(Cc1ccc(NC(=O)C2=Cc3cc(Cl)c(Cl)cc3OCC2)cc1)C1CCCCC1 [Cpd 168, cyclohexyl-{4-[(7,8-dichloro-2,3-dihydro-benzo[b]oxepine-4-carbonyl)-amino]-benzyl}-dimethyl-ammonium iodide]
IC50 (CCR2): 1 µM

C[N+](C)(Cc1ccc(NC(=O)C2=Cc3cc(Cl)c(Cl)cc3OCC2)cc1)C1CC2CCC1C2 (stereo not shown) [Cpd 169, bicyclo[2.2.1]hept-2-yl-{4-[(7,8-dichloro-2,3-dihydro-benzo[b]oxepine-4-carbonyl)-amino]-benzyl}-dimethyl-ammonium iodide]
IC50 (CCR2): 0.24 µM

C[N+](C)(Cc1ccc(CNC(=O)C2=Cc3cc(Cl)c(Cl)cc3OCC2)cc1)C1CCOCC1 [Cpd 170, (4-{[(7,8-dichloro-2,3-dihydro-benzo[b]oxepine-4-carbonyl)-amino]-methyl}-benzyl)-dimethyl-(tetrahydro-pyran-4-yl)-ammonium iodide]
inhibition at 25 µM (CCR2): 36%

C[N+](C)(Cc1ccc(NC(=O)C2=Cc3cc(Cl)c(Cl)cc3OCC2)cc1)C1CCSC1 (stereo not shown) [Cpd 171, {4-[(7,8-dichloro-2,3-dihydro-benzo[b]oxepine-4-carbonyl)-amino]-benzyl}-dimethyl-(tetrahydro-thiophen-3-yl)-ammonium iodide]
IC50 (CCR2): 0.56 µM

C[N+](C)(Cc1ccc(NC(=O)c2cncc(Br)c2)cc1)C1CCOCC1 [Cpd 172, {4-[(5-bromo-pyridine-3-carbonyl)-amino]-benzyl}-dimethyl-(tetrahydro-pyran-4-yl)-ammonium iodide]
inhibition at 25 µM (CCR2): 17%

C[N+](C)(Cc1ccc(NC(=O)c2ccnc(Cl)c2)cc1)C1CCOCC1 [Cpd 173, {4-[(2-chloro-pyridine-4-carbonyl)-amino]-benzyl}-dimethyl-(tetrahydro-pyran-4-yl)-ammonium iodide]
IC50 (CCR2): 8.1 µM

C[N+](C)(Cc1ccc(NC(=O)c2sc3ccccc3c2Cl)cc1)C1CCOCC1 [Cpd 174, {4-[(3-chloro-benzo[b]thiophene-2-carbonyl)-amino]-benzyl}-dimethyl-(tetrahydro-pyran-4-yl)-ammonium iodide]
inhibition at 25 µM (CCR2): 52%

C[N+](C)(Cc1ccc(NC(=O)c2cc(Cl)sc2Cl)cc1)C1CCOCC1 [Cpd 175, {4-[(2,5-dichloro-thiophene-3-carbonyl)-amino]-benzyl}-dimethyl-(tetrahydro-pyran-4-yl)-ammonium iodide]
IC50 (CCR2): 1.5 µM

C[N+](C)(Cc1ccc(NC(=O)c2cc3ccccc3s2)cc1)C1CCOCC1 [Cpd 176, {4-[(benzo[b]thiophene-2-carbonyl)-amino]-benzyl}-dimethyl-(tetrahydro-pyran-4-yl)-ammonium iodide]
IC50 (CCR2): 0.26 µM

C[N+](C)(Cc1ccc(NC(=O)c2cc3ccccc3s2)cc1)C1CCCCC1 [Cpd 177, {4-[(benzo[b]thiophene-2-carbonyl)-amino]-benzyl}-cyclohexyl-dimethyl-ammonium iodide]
IC50 (CCR2): 0.17 µM

C[N+](C)(Cc1ccc(NC(=O)c2sc3ccccc3c2Cl)cc1)C1CCCCC1 [Cpd 178, {4-[(3-chloro-benzo[b]thiophene-2-carbonyl)-amino]-benzyl}-cyclohexyl-dimethyl-ammonium iodide]
IC50 (CCR2): 8.8 µM

CN1CCC(=C2c3ccccc3CC(=O)c3sccc32)CC1 [Ketotifen]
inhibition of nasal symptoms (rubbing) [3, 7]: 81% | inhibition of nasal symptoms (sneezing) [3, 7]: 50%

COc1ccc(CN(CCN(C)C)c2ccccn2)cc1 [Pyralimine]
inhibition of nasal symptoms (rubbing) [3, 7]: 85% | inhibition of nasal symptoms (sneezing) [3, 7]: 60%
